In the supplement of paper PMC10307832:

What was measured:
Experiment in all cases: relative viability (nuclei count vs DMSO), 5 days (fraction); higher = more cells survive
[1] = compound: CC1=C(C(=O)N2C=CSC2=N1)CCN3CCC(=C(C4=CC=CC=C4)C5=CC=C(C=C5)F)CC3 + CS(=O)(=O)CCNCc1ccc(-c2ccc3ncnc(Nc4ccc(OCc5cccc(F)c5)c(Cl)c4)c3c2)o1 [Lapatinib] (partner 2 µM)
Procedure, shortened: (§1)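 Relative viability divides the nuclei count in treated wells by that in vehicle wells. Lung cancer cell lines were seeded in 1536-well plates, dosed by pin tool the next day, and fixed and stained after 5 days in one step with final 0.05% Triton X-100, 1% formaldehyde and 1 ug/ml Hoechst. Dosing was a single drug or a fixed anchor-drug dose plus five library-drug doses (not always all listed) in √10 steps, and values are medians of duplicate plates imaged at 4×.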

[2] = compound: CC1=C(C(=O)N2C=CSC2=N1)CCN3CCC(=C(C4=CC=CC=C4)C5=CC=C(C=C5)F)CC3 + O=C(c1cc(Cc2n[nH]c(=O)c3ccccc23)ccc1F)N1CCN(C(=O)C2CC2)CC1 [Olaparib] (partner 8 µM)
Procedure, shortened: as §1

[3] = compound: CC1=C(C(=O)N2C=CSC2=N1)CCN3CCC(=C(C4=CC=CC=C4)C5=CC=C(C=C5)F)CC3 + Nc1ncn([C@H]2C[C@H](O)[C@@H](CO)O2)c(=O)n1 [Decitabine] (partner 2 µM)
Procedure, shortened: as §1

[4] = compound: CC1=C(C(=O)N2C=CSC2=N1)CCN3CCC(=C(C4=CC=CC=C4)C5=CC=C(C=C5)F)CC3 + NC(=O)Nc1cc(-c2cccc(F)c2)sc1C(=O)N[C@H]1CCCNC1 [AZD7762] (partner 0.2 µM)
Procedure, shortened: as §1

| Cell Line | relative viability ([1]; first compound 0.08 µM) | relative viability ([1]; first compound 0.253 µM) | relative viability ([1]; first compound 0.8 µM) | relative viability ([1]; first compound 2.53 µM) | relative viability ([1]; first compound 8 µM) | relative viability ([2]; first compound 0.08 µM) | relative viability ([2]; first compound 0.253 µM) | relative viability ([2]; first compound 0.8 µM) | relative viability ([2]; first compound 2.53 µM) | relative viability ([2]; first compound 8 µM) | relative viability ([3]; first compound 0.08 µM) | relative viability ([3]; first compound 0.253 µM) | relative viability ([3]; first compound 0.8 µM) | relative viability ([3]; first compound 2.53 µM) | relative viability ([3]; first compound 8 µM) | relative viability ([4]; first compound 0.08 µM) | relative viability ([4]; first compound 0.253 µM) | relative viability ([4]; first compound 0.8 µM) | relative viability ([4]; first compound 2.53 µM) | relative viability ([4]; first compound 8 µM) |
| --- | --- | --- | --- | --- | --- | --- | --- | --- | --- | --- | --- | --- | --- | --- | --- | --- | --- | --- | --- | --- |
| NCI-H1355 | 1.04 | 0.981 | 1.03 | 0.997 | 0.885 | 0.749 | 0.815 | 0.793 | 0.732 | 0.529 | 0.38 | 0.382 | 0.369 | 0.354 | 0.368 | 1.02 | 0.846 | 0.822 | 0.815 | 0.595 |
| NCI-H1395 | 1.11 | 0.97 | 0.908 | 1 | 0.821 | 0.424 | 0.43 | 0.443 | 0.406 | 0.434 | 0.718 | 0.782 | 0.652 | 0.688 | 0.674 | 0.384 | 0.457 | 0.391 | 0.419 | 0.383 |
| NCI-H1437 |  | 0.718 | 0.88 | 0.928 | 0.487 | 0.658 | 0.692 | 0.66 | 0.692 | 0.51 | 0.568 | 0.62 | 0.616 | 0.613 | 0.39 | 1.25 | 1.32 | 1.21 | 1.14 | 1.04 |
| NCI-H1651 | 0.876 | 0.759 | 0.912 | 1.02 | 0.514 | 0.165 | 0.176 | 0.189 | 0.217 | 0.183 | 0.644 | 0.604 | 0.587 | 0.597 | 0.526 | 0.438 | 0.467 | 0.472 | 0.467 | 0.304 |
| NCI-H1666 | 0.565 | 0.704 | 0.584 | 0.621 | 0.486 | 0.698 | 0.756 | 0.684 | 0.751 | 0.764 | 0.714 | 0.786 | 0.678 | 0.873 | 0.616 | 0.787 | 0.819 | 0.847 | 0.946 | 0.673 |
| NCI-H1734 | 1.08 | 0.866 | 0.984 | 1.33 | 0.71 | 0.554 | 0.526 | 0.624 | 0.767 | 0.396 | 0.481 | 0.469 | 0.507 | 0.504 | 0.496 | 0.545 | 0.487 | 0.475 | 0.549 | 0.368 |
| NCI-H1755 | 1.08 | 1.01 | 1.05 | 1.08 | 0.861 | 0.892 | 0.995 | 0.939 | 0.934 | 0.719 | 0.677 | 0.784 | 0.721 | 0.66 | 0.754 | 0.465 | 0.446 | 0.434 | 0.508 | 0.418 |
| NCI-H1792 | 1.02 | 0.401 | 0.931 | 0.921 | 0.489 | 0.318 | 0.357 | 0.631 | 0.603 | 0.348 | 0.312 | 0.561 | 0.614 | 0.426 | 0.19 | 0.649 | 0.655 | 0.62 | 0.636 | 0.386 |
| NCI-H1793 | 0.793 | 0.535 | 0.748 | 0.864 | 0.575 | 0.536 | 0.807 | 0.937 | 1.08 | 0.521 | 0.433 | 0.558 | 0.502 | 0.505 | 0.416 | 0.457 | 0.408 | 0.597 | 0.381 | 0.378 |
| NCI-H1915 | 1.22 | 1.07 | 0.959 | 1.12 | 0.691 | 0.254 | 0.272 | 0.284 | 0.238 | 0.223 | 0.305 | 0.277 | 0.265 | 0.253 | 0.257 | 0.714 | 0.802 | 0.662 | 0.75 | 0.518 |
| NCI-H1944 | 1.1 | 0.904 | 0.773 | 1.1 | 0.898 | 0.422 | 0.446 | 0.38 | 0.383 | 0.359 | 0.462 | 0.43 | 0.413 | 0.433 | 0.417 | 0.482 | 0.491 | 0.461 | 0.469 | 0.43 |
| NCI-H1975 | 0.97 | 0.855 | 0.867 | 0.891 | 0.518 | 0.674 | 0.714 | 0.899 | 0.852 | 0.433 | 0.347 | 0.507 | 0.36 | 0.408 | 0.353 | 0.658 | 0.76 | 0.769 | 0.738 | 0.618 |
| NCI-H1993 | 0.801 |  | 0.886 | 0.706 | 0.808 | 1 | 0.944 | 1.01 | 1.3 | 0.838 | 0.635 | 0.644 | 0.6 | 0.64 | 0.576 | 0.501 | 0.632 | 0.726 | 0.73 | 0.63 |
| NCI-H2085 | 0.805 | 0.774 | 0.763 | 0.986 | 0.72 | 0.805 | 0.776 | 0.807 | 0.783 | 0.735 | 0.553 | 0.563 | 0.504 | 0.573 | 0.559 | 1.06 | 1.29 | 0.92 | 1.03 | 0.89 |
| NCI-H2087 | 1.13 | 0.88 | 1.07 | 1.23 | 0.843 | 0.564 | 0.559 | 0.57 | 0.756 | 0.445 | 0.245 | 0.236 | 0.255 | 0.286 | 0.191 | 1.21 | 1.36 | 1.58 | 1.24 | 0.506 |
| NCI-H2126 | 0.848 | 0.815 | 0.77 | 0.772 | 0.836 | 1.07 | 0.855 | 0.975 | 0.968 | 0.695 | 0.588 | 0.518 | 0.599 | 0.614 | 0.514 | 1.07 | 0.961 | 1.03 | 1.04 | 0.705 |
| NCI-H2170 | 0.274 | 0.268 | 0.276 | 0.278 | 0.274 | 0.674 | 0.538 | 0.635 | 0.717 | 0.394 | 0.522 | 0.461 | 0.487 | 0.457 | 0.395 | 0.696 | 0.884 | 0.932 | 0.76 | 0.462 |
| NCI-H2347 | 0.947 | 1.12 | 0.965 | 0.931 | 0.917 | 0.58 | 0.571 | 0.616 | 0.549 | 0.598 | 0.375 | 0.693 | 0.667 | 0.621 | 0.513 | 0.603 | 0.692 | 0.773 | 0.895 | 0.553 |
| NCI-H2405 | 1.29 | 1.06 | 1.05 | 1.17 | 0.955 | 0.941 |  | 0.889 | 0.989 | 0.79 | 0.785 |  | 0.8 | 0.724 | 0.617 | 0.901 |  | 0.725 | 0.74 | 0.55 |
| NCI-H3122 | 1.01 | 1.14 | 1.03 | 1.2 | 0.964 | 0.458 | 0.627 | 0.595 | 0.628 | 0.371 | 0.398 | 0.434 | 0.402 | 0.467 | 0.439 | 0.86 | 1.05 | 0.983 | 1.14 | 0.59 |
| PC-3 [JPC-3] | 0.392 | 0.496 | 0.454 | 0.454 | 0.449 | 1.04 |  | 1.21 | 1.31 | 1.05 | 0.826 |  | 0.932 | 0.845 | 0.846 | 0.768 |  | 0.815 | 0.78 | 0.736 |
| PC-14 | 0.296 | 0.335 | 0.301 | 0.352 | 0.295 | 0.209 | 0.223 | 0.27 | 0.251 | 0.253 | 0.205 | 0.241 | 0.201 | 0.237 | 0.176 | 0.373 | 0.312 | 0.369 | 0.371 | 0.246 |
| RERF-LC-KJ | 0.873 | 0.753 | 0.921 | 0.907 | 0.666 | 0.968 | 0.819 | 0.845 | 0.89 | 0.706 | 0.715 | 0.746 | 0.647 | 0.62 | 0.572 | 0.636 | 0.936 | 1.15 | 0.945 | 0.584 |
